Experimental data reported in patent US20100173930A1, “Certain Chemical Entities, Compositions and Methods” (priority 2006, published 2010).
Further: unit not given here.

These molecules were tested on SKM MYOFIBRIL (assay: SKM myofibril AC1.4 (ATPase, PK/LDH coupled enzyme system)). Details: screen at pCa=6.5.
Assay type: biochemical
Procedure: Assay components including the target protein complex, coupling enzymes and substrates, and ATP can then be added to the wells and the absorbance or fluorescence of each well of the plate can be measured with a plate reader.
In some embodiments, the method uses a 384 well plate format and a 25µL reaction volume. […] As will be appreciated by those in the art, the assay components are added in buffers and reagents. The incubation periods can be optimized to give adequate detection signals over the background. The assay can be done in real time giving the kinetics of ATP hydrolysis which increases the signal to noise ratio of the assay.
Just prior to screening, the actin, tropomyosin and troponin complex are mixed together in the desired ratio (e.g., 7:1:1) to achieve maximal calcium regulation of the actin filament. The screen is conducted at a pCa=6.5. This calcium concentration is in the physiological range during muscle contraction.
To measure the generation of ADP during the reaction, a pyruvate kinase/lactate dehydrogenase/NADH coupled enzyme system (PK/LDH) is added to the actin. The myosin is kept separately. The plates are read in real time so that kinetic curves are obtained. These compounds are in DMSO and were already spotted onto the bottoms of 384 well plates at 10 to 40 μg/ml final concentration.
`Oc1ccc(-c2nc3ccc(F)cn3c2NCc2ccc(F)cc2)cc1` [4-(6-fluoro-3-{[(4-fluorophenyl)methyl]amino}-4-hydroimidazo[1,2-a]pyridin-2-yl)phenol] was tested, and the “SKM MYOFIBRIL AC1.4 (median)” value was 26.5123. For `Cc1ccc2cc(-c3nc4cc(C)ccn4c3NCc3cccc(Cl)c3)c(O)nc2c1` [3-(3-{[(3-chlorophenyl)methyl]amino}-7-methyl(4-hydroimidazo[1,2-a]pyridin-2-yl))-7-methylquinolin-2-ol], the “SKM MYOFIBRIL AC1.4 (median)” value was 9.2086. `Oc1ccccc1-c1nc2ccccn2c1NCc1cccc(Cl)c1` [2-(3-{[(3-chlorophenyl)methyl]amino}-4-hydroimidazo[1,2-a]pyridin-2-yl)phenol] was tested, and the “SKM MYOFIBRIL AC1.4 (median)” value was 4.2459. With `Cc1ccn2c(NCc3ccc(Cl)cc3)c(-c3ccccc3O)nc2c1` [2-(3-{[(4-chlorophenyl)methyl]amino}-7-methyl-4-hydroimidazo[1,2-a]pyridin-2-yl)phenol] the “SKM MYOFIBRIL AC1.4 (median)” value was 3.3207. For `Oc1ccccc1-c1nc2cnccn2c1NCc1cccs1` [2-{3-[(2-thienylmethyl)amino]-4-hydroimidazo[1,2-a]pyrazin-2-yl}phenol], the “SKM MYOFIBRIL AC1.4 (median)” value was 10.6577. `Cc1cccc2cc3c(nc12)OCC(=O)N(Cc1ccc(Cl)cc1)C3` [4-[(4-chlorophenyl)methyl]-10-methyl-2H,5H-1,4-oxazaperhydroepino[7,6-b]quinolin-3-one] was tested, and the “SKM MYOFIBRIL AC1.4 (median)” value was 18.1529. For `Oc1ccccc1-c1nc2ccccn2c1NC1CCCC1` [2-[3-(cyclopentylamino)-4-hydroimidazo[1,2-a]pyridin-2-yl]phenol], the “SKM MYOFIBRIL AC1.4 (median)” value was 11.2917. For `Cc1ccc(CNc2c(-c3ccccc3O)nc3cc(C)ccn23)cc1` [2-(7-methyl-3-{[(4-methylphenyl)methyl]amino}-4-hydroimidazo[1,2-a]pyridin-2-yl)phenol], the “SKM MYOFIBRIL AC1.4 (median)” value was 16.3079. For `Cc1ccc(-c2nc3ccccn3c2NCc2cccc(Cl)c2)cc1` [[(3-chlorophenyl)methyl][2-(4-methylphenyl)(4-hydroimidazo[1,2-a]pyridin-3-yl)]amine], the “SKM MYOFIBRIL AC1.4 (median)” value was 17.6147. `NC(=O)c1ccc2nc(-c3ccccc3O)c(NCc3cccc(Cl)c3)n2c1` [3-{[(3-chlorophenyl)methyl]amino}-2-(2-hydroxyphenyl)-4-hydroimidazo[1,2-a]pyridine-6-carboxamide] was tested, and the “SKM MYOFIBRIL AC1.4 (median)” value was 1.2788. With `COc1ccc(-c2nc3ccc(C)cn3c2NC2CCCCC2)cc1O` [5-[3-(cyclohexylamino)-6-methyl(4-hydroimidazo[1,2-a]pyridin-2-yl)]-2-methoxyphenol] the “SKM MYOFIBRIL AC1.4 (median)” value was 6.0251. With `O=C(O)c1ccc2nc(-c3ccccc3O)c(NCc3ccc(F)cc3)n2c1` [3-{[(4-fluorophenyl)methyl]amino}-2-(2-hydroxyphenyl)-4-hydroimidazo[1,2-a]pyridine-6-carboxylic acid] the “SKM MYOFIBRIL AC1.4 (median)” value was 30.4725. With `COc1ccccc1CNc1c(-c2ccccc2O)nc2cc(C)ccn12` [2-(3-{[(2-methoxyphenyl)methyl]amino}-7-methyl-4-hydroimidazo[1,2-a]pyridin-2-yl)phenol] the “SKM MYOFIBRIL AC1.4 (median)” value was 1.9683. With `NC(=O)c1ccc2nc(-c3ccccc3O)c(NCc3ccc(F)cc3)n2c1` [3-{[(4-fluorophenyl)methyl]amino}-2-(2-hydroxyphenyl)-4-hydroimidazo[1,2-a]pyridine-6-carboxamide] the “SKM MYOFIBRIL AC1.4 (median)” value was 2.0079. In the case of `O=C(NCCO)c1ccc2nc(-c3ccccc3O)c(NCc3ccc(F)cc3)n2c1` [(3-{[(4-fluorophenyl)methyl]amino}-2-(2-hydroxyphenyl)(4-hydroimidazo[1,2-a]pyridin-6-yl))-N-(2-hydroxyethyl)carboxamide], the “SKM MYOFIBRIL AC1.4 (median)” value was 2.2384. `Oc1ccc(-c2nc3ccc(Cl)cn3c2NCc2ccc(F)cc2)cc1` [4-(6-chloro-3-{[(4-fluorophenyl)methyl]amino}-4-hydroimidazo[1,2-a]pyridin-2-yl)phenol] was tested, and the “SKM MYOFIBRIL AC1.4 (median)” value was 14.9602. For `O=C(O)c1ccc2nc(-c3ccccc3O)c(NCc3cccc(Cl)c3)n2c1` [3-{[(3-chlorophenyl)methyl]amino}-2-(2-hydroxyphenyl)-4-hydroimidazo[1,2-a]pyridine-6-carboxylic acid], the “SKM MYOFIBRIL AC1.4 (median)” value was 15.043. With `Oc1ccc(-c2nc3ccccn3c2NCc2ccc(Cl)cc2)cc1` [4-(3-{[(4-chlorophenyl)methyl]amino}-4-hydroimidazo[1,2-a]pyridin-2-yl)phenol] the “SKM MYOFIBRIL AC1.4 (median)” value was 21.4002. With `Oc1ccccc1-c1nc2ccccn2c1NCc1ccc(F)cc1` [2-(3-{[(4-fluorophenyl)methyl]amino}-4-hydroimidazo[1,2-a]pyridin-2-yl)phenol] the “SKM MYOFIBRIL AC1.4 (median)” value was 3.2661. `Oc1ccc(-c2nc3ccc(Br)cn3c2NC2CCCCC2)cc1` [4-[6-bromo-3-(cyclohexylamino)-4-hydroimidazo[1,2-a]pyridin-2-yl]phenol] was tested, and the “SKM MYOFIBRIL AC1.4 (median)” value was 12.8016. In the case of `C[C@@H](Nc1c(-c2ccc(O)cc2)nc2ccccn12)C(C)(C)C` [4-{3-[((1R)-1,2,2-trimethylpropyl)amino]-4-hydroimidazo[1,2-a]pyridin-2-yl}phenol], the “SKM MYOFIBRIL AC1.4 (median)” value was 15.0489. In the case of `Oc1ccccc1-c1nc2cc(Br)ccn2c1NCc1cccc(Cl)c1` [2-(7-bromo-3-{[(3-chlorophenyl)methyl]amino}-4-hydroimidazo[1,2-a]pyridin-2-yl)phenol], the “SKM MYOFIBRIL AC1.4 (median)” value was 8.3071. In the case of `Oc1ccccc1-c1nc2ccccn2c1NC1CCCCC1` [2-[3-(cyclohexylamino)-4-hydroimidazo[1,2-a]pyridin-2-yl]phenol], the “SKM MYOFIBRIL AC1.4 (median)” value was 8.1939. With `N#Cc1ccc2nc(-c3ccc(O)cc3)c(NC3CCCC3)n2c1` [3-(cyclopentylamino)-2-(4-hydroxyphenyl)-4-hydroimidazo[1,2-a]pyridine-6-carbonitrile] the “SKM MYOFIBRIL AC1.4 (median)” value was 46.9669. For `Cc1ccc2nc(-c3ccc(O)cc3)c(NC3CCCC3)n2c1` [4-[3-(cyclopentylamino)-6-methyl-4-hydroimidazo[1,2-a]pyridin-2-yl]phenol], the “SKM MYOFIBRIL AC1.4 (median)” value was 13.5754. `Oc1ccccc1-c1nc2cnccn2c1NCc1ccc(F)cc1` [2-(3-{[(4-fluorophenyl)methyl]amino}-4-hydroimidazo[1,2-a]pyrazin-2-yl)phenol] was tested, and the “SKM MYOFIBRIL AC1.4 (median)” value was 4.6013. For `Cc1ccn2c(NCc3ccccc3Cl)c(-c3ccccc3O)nc2c1` [2-(3-{[(2-chlorophenyl)methyl]amino}-7-methyl-4-hydroimidazo[1,2-a]pyridin-2-yl)phenol], the “SKM MYOFIBRIL AC1.4 (median)” value was 1.165. `Cc1ccn2c(NCc3cccc(Cl)c3)c(-c3ccccc3O)nc2n1` [2-(3-{[(3-chlorophenyl)methyl]amino}-7-methyl-4-hydroimidazo[1,2-a]pyrimidin-2-yl)phenol] was tested, and the “SKM MYOFIBRIL AC1.4 (median)” value was 7.147. With `Oc1ccc(-c2nc3ccccn3c2NCc2ccc(F)cc2F)cc1` [4-(3-{[(2,4-difluorophenyl)methyl]amino}-4-hydroimidazo[1,2-a]pyridin-2-yl)phenol] the “SKM MYOFIBRIL AC1.4 (median)” value was 37.1035. With `Cc1ccc2cc(-c3nc4cc(C)ccn4c3NCc3ccc(F)cc3)c(O)nc2c1` [3-(3-{[(4-fluorophenyl)methyl]amino}-7-methyl(4-hydroimidazo[1,2-a]pyridin-2-yl))-7-methylquinolin-2-ol] the “SKM MYOFIBRIL AC1.4 (median)” value was 38.7091. In the case of `Cc1ccc(-c2nc3cc(C)ccn3c2NC2CCCC2)cc1` [cyclopentyl[7-methyl-2-(4-methylphenyl)(4-hydroimidazo[1,2-a]pyridin-3-yl)]amine], the “SKM MYOFIBRIL AC1.4 (median)” value was 4.2349. With `C[C@@H](Nc1c(-c2ccc(O)cc2)nc2ccccn12)c1ccccc1` [4-{3-[((1R)-1-phenylethyl)amino]-4-hydroimidazo[1,2-a]pyridin-2-yl}phenol] the “SKM MYOFIBRIL AC1.4 (median)” value was 28.0451. In the case of `Cc1ccn2c(NCc3cccc(Cl)c3)c(-c3ccc(Cl)cc3O)nc2c1` [5-chloro-2-(3-{[(3-chlorophenyl)methyl]amino}-7-methyl(4-hydroimidazo[1,2-a]pyridin-2-yl))phenol], the “SKM MYOFIBRIL AC1.4 (median)” value was 20.0045. With `CCc1ccc2nc(-c3ccc(O)cc3)c(NC3CCCCC3)n2c1` [4-[3-(cyclohexylamino)-6-ethyl-4-hydroimidazo[1,2-a]pyridin-2-yl]phenol] the “SKM MYOFIBRIL AC1.4 (median)” value was 4.3136. `Oc1ccc(-c2nc3ccc(-c4ccccc4)cn3c2NCc2ccc(F)cc2)cc1` [4-(3-{[(4-fluorophenyl)methyl]amino}-6-phenyl-4-hydroimidazo[1,2-a]pyridin-2-yl)phenol] was tested, and the “SKM MYOFIBRIL AC1.4 (median)” value was 15.7257. In the case of `CC(C)(C)CC(C)(C)Nc1c(-c2ccc(O)cc2)nc2ccccn12` [4-{3-[(1,1,3,3-tetramethylbutyl)amino]-4-hydroimidazo[1,2-a]pyridin-2-yl}phenol], the “SKM MYOFIBRIL AC1.4 (median)” value was 23.4246. For `COc1cccc(CNc2c(-c3ccccc3O)nc3cc(C)ccn23)c1` [2-(3-{[(3-methoxyphenyl)methyl]amino}-7-methyl-4-hydroimidazo[1,2-a]pyridin-2-yl)phenol], the “SKM MYOFIBRIL AC1.4 (median)” value was 10.2909. `Oc1ccccc1-c1nc2c(Br)cccn2c1NCc1cccc(Cl)c1` [2-(8-bromo-3-{[(3-chlorophenyl)methyl]amino}-4-hydroimidazo[1,2-a]pyridin-2-yl)phenol] was tested, and the “SKM MYOFIBRIL AC1.4 (median)” value was 13.2238. With `OCc1ccn2c(NCc3cccc(Cl)c3)c(-c3ccccc3O)nc2c1` [2-(3-{[(3-chlorophenyl)methyl]amino}-7-(hydroxymethyl)-4-hydroimidazo[1,2-a]pyridin-2-yl)phenol] the “SKM MYOFIBRIL AC1.4 (median)” value was 1.9956. In the case of `Oc1ccc(-c2nc3ccccn3c2NCc2ccccc2Cl)cc1` [4-(3-{[(2-chlorophenyl)methyl]amino}-4-hydroimidazo[1,2-a]pyridin-2-yl)phenol], the “SKM MYOFIBRIL AC1.4 (median)” value was 17.7003. In the case of `Oc1ccc(-c2nc3ccc(-c4ccccc4)cn3c2NC2CCCC2)cc1` [4-[3-(cyclopentylamino)-6-phenyl-4-hydroimidazo[1,2-a]pyridin-2-yl]phenol], the “SKM MYOFIBRIL AC1.4 (median)” value was 22.1213. `Cc1ccn2c(NC3CCCC3)c(-c3ccccc3O)nc2c1` [2-[3-(cyclopentylamino)-7-methyl-4-hydroimidazo[1,2-a]pyridin-2-yl]phenol] was tested, and the “SKM MYOFIBRIL AC1.4 (median)” value was 11.1785. In the case of `Cc1ccn2c(NCc3cccc(Cl)c3)c(-c3ncccc3O)nc2c1` [2-(3-{[(3-chlorophenyl)methyl]amino}-7-methyl-4-hydroimidazo[1,2-a]pyridin-2-yl)pyridin-3-ol], the “SKM MYOFIBRIL AC1.4 (median)” value was 36.9847. In the case of `Oc1ccc(-c2nc3ccccn3c2NCc2ccc(F)cc2)cc1` [4-(3-{[(4-fluorophenyl)methyl]amino}-4-hydroimidazo[1,2-a]pyridin-2-yl)phenol], the “SKM MYOFIBRIL AC1.4 (median)” value was 40.3674.
